Measurements from patent publication US9695155B2, “Herbicidal substituted pyrimidinyloxy benzene compounds” (E. I. DU PONT DE NEMOURS AND COMPANY, priority 2013, dated 2017).

Assays:
barnyardgrass [1] = assay: Test A preemergence; assay type: in vivo, Echinochloa crus-galli; conditions: for Barnyardgrass plant response rating (0 to 100 scale, 0 is no effect, 100 is complete control): 125 g ai/ha
Procedure, shortened: (§1)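 Greenhouse pot test, loam/sand soil. Formulation: non-phytotoxic solvent mix plus surfactant. Pre: directed spray onto soil after sowing. Post: plants at 1–2 leaf, 2–10 cm. Rated visually vs untreated controls at ~10 d, 0 (no effect) to 100 (complete control).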

large (Lg) crabgrass [2] = assay: Test A preemergence; assay type: in vivo, Digitaria sanguinalis; conditions: for Crabgrass, Large plant response rating (0 to 100 scale): 125 g ai/ha
Procedure, shortened: as §1

giant foxtail [3] = assay: Test A preemergence; assay type: in vivo, Setaria faberii; conditions: for Foxtail, Giant plant response rating (0 to 100 scale): 125 g ai/ha
Procedure, shortened: as §1

morningglory [4] = assay: Test A preemergence; assay type: in vivo, Ipomoea spp.; conditions: for Morningglory plant response rating (0 to 100 scale): 125 g ai/ha
Procedure, shortened: as §1

pigweed [5] = assay: Test A preemergence; assay type: in vivo, Amaranthus retroflexus; conditions: for Pigweed plant response rating (0 to 100 scale): 125 g ai/ha
Procedure, shortened: as §1

velvetleaf [6] = assay: Test A preemergence; assay type: in vivo, Abutilon theophrasti; conditions: for Velvetleaf plant response rating (0 to 100 scale): 125 g ai/ha
Procedure, shortened: as §1

wheat [7] = assay: Test A preemergence; assay type: in vivo, Triticum aestivum; conditions: for Wheat plant response rating (0 to 100 scale): 125 g ai/ha
Procedure, shortened: as §1

corn [8] = assay: Test A preemergence; assay type: in vivo, Zea mays; conditions: for Corn plant response rating (0 to 100 scale): 125 g ai/ha
Procedure, shortened: as §1

barnyardgrass [9] = assay: Test A postemergence; assay type: in vivo, Echinochloa crus-galli; conditions: for Barnyardgrass plant response rating: 125 g ai/ha
Procedure, shortened: as §1

large (Lg) crabgrass [10] = assay: Test A postemergence; assay type: in vivo, Digitaria sanguinalis; conditions: for Crabgrass, Large plant response rating: 125 g ai/ha
Procedure, shortened: as §1

giant foxtail [11] = assay: Test A postemergence; assay type: in vivo, Setaria faberii; conditions: for Foxtail, Giant plant response rating: 125 g ai/ha
Procedure, shortened: as §1

morningglory [12] = assay: Test A postemergence; assay type: in vivo, Ipomoea spp.; conditions: for Morningglory plant response rating: 125 g ai/ha
Procedure, shortened: as §1

pigweed [13] = assay: Test A postemergence; assay type: in vivo, Amaranthus retroflexus; conditions: for Pigweed plant response rating: 125 g ai/ha
Procedure, shortened: as §1

velvetleaf [14] = assay: Test A postemergence; assay type: in vivo, Abutilon theophrasti; conditions: for Velvetleaf plant response rating: 125 g ai/ha
Procedure, shortened: as §1

wheat [15] = assay: Test A postemergence; assay type: in vivo, Triticum aestivum; conditions: for Wheat plant response rating: 125 g ai/ha
Procedure, shortened: as §1

corn [16] = assay: Test A postemergence; assay type: in vivo, Zea mays; conditions: for Corn plant response rating: 125 g ai/ha
Procedure, shortened: as §1

rice = assay: Test B flooded paddy test; assay type: in vivo, Oryza sativa; conditions: Flood, 250 g ai/ha; 0 to 100 scale where 0 is no effect and 100 is complete control
Procedure, shortened: (§2)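 Plants were grown to the 2-leaf stage, then pots were flooded to 3 cm above the soil and compounds were applied directly into the paddy water. That depth was held throughout, and after 13 to 15 days in the greenhouse injury was rated visually against controls on a 0–100 scale (0 no effect, 100 complete control).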

sedge, umbrella = assay: Test B flooded paddy test; assay type: in vivo, Cyperus difformis; conditions: Flood, 250 g ai/ha; 0 to 100 scale where 0 is no effect and 100 is complete control
Procedure, shortened: as §2

Heteranthera limosa = assay: Test B flooded paddy test; assay type: in vivo; conditions: Flood, 250 g ai/ha; 0 to 100 scale where 0 is no effect and 100 is complete control
Procedure, shortened: as §2

barnyardgrass [17] = assay: Test B flooded paddy test; assay type: in vivo, Echinochloa crus-galli; conditions: Flood, 250 g ai/ha; 0 to 100 scale where 0 is no effect and 100 is complete control
Procedure, shortened: as §2

[18] = 1000 g ai/ha, 0 to 100 scale, 0 no effect, 100 complete control, approx. 10 days
[19] = 1000 g ai/ha, 0 to 100 scale, 0 no effect, 100 complete control
[20] = 500 g ai/ha, 0 to 100 scale where 0 is no effect and 100 is complete control
[21] = 0 to 100 scale where 0 is no effect and 100 is complete control

Structure (SMILES)	Plant response rating, Rice (rice)	Plant response rating, Sedge, Umbrella (sedge, umbrella)	Plant response rating, Ducksalad (Heteranthera limosa)	Plant response rating, Barnyardgrass (barnyardgrass [17])	Barnyardgrass plant response rating (0 to 100 scale, 0 is no effect, 100 is complete control) (barnyardgrass [1])	Barnyardgrass plant response rating (barnyardgrass [1]; [20])	Crabgrass, Large plant response rating (0 to 100 scale) (large (Lg) crabgrass [2])	Crabgrass, Large plant response rating (large (Lg) crabgrass [2]; [20])	Foxtail, Giant plant response rating (0 to 100 scale) (giant foxtail [3])	Foxtail, Giant plant response rating (giant foxtail [3]; [20])	Morningglory plant response rating (0 to 100 scale) (morningglory [4])	Morningglory plant response rating (morningglory [4]; [20])	Pigweed plant response rating (0 to 100 scale) (pigweed [5])	Pigweed plant response rating (pigweed [5]; [20])	Velvetleaf plant response rating (0 to 100 scale) (velvetleaf [6])	Velvetleaf plant response rating (velvetleaf [6]; [20])	Wheat plant response rating (0 to 100 scale) (wheat [7])	Wheat plant response rating (wheat [7]; [20])	Corn plant response rating (0 to 100 scale) (corn [8])	Corn plant response rating (corn [8]; [20])	also measured
CC(=O)Oc1cccc(Oc2ncc(Cl)cn2)c1-n1cc(Cl)cn1 [Compound 216]	0	0	0	0	–	–	–	–	–	–	–	–	–	–	–	–	–	–	–	–	Barnyardgrass plant response rating (barnyardgrass [1]; [18]): 30; Crabgrass, Large plant response rating (large (Lg) crabgrass [2]; [18]): 70; Foxtail, Giant plant response rating (giant foxtail [3]; [18]): 40; Morningglory plant response rating (morningglory [4]; [18]): 0; Pigweed plant response rating (pigweed [5]; [18]): 100; Velvetleaf plant response rating (velvetleaf [6]; [18]): 30; Wheat plant response rating (wheat [7]; [18]): 0; Corn plant response rating (corn [8]; [18]): 0; Plant response rating, Barnyardgrass (barnyardgrass [9]; [19]): 0; Plant response rating, Crabgrass, Large (large (Lg) crabgrass [10]; [19]): 40; Plant response rating, Foxtail, Giant (giant foxtail [11]; [19]): 30; Plant response rating, Morningglory (morningglory [12]; [19]): 40; Plant response rating, Pigweed (pigweed [13]; [19]): 100; Plant response rating, Velvetleaf (velvetleaf [14]; [19]): 100; Plant response rating, Wheat (wheat [15]; [19]): 0; Plant response rating, Corn (corn [16]; [19]): 0
N#Cc1cnc(Oc2ccccc2-n2cccn2)nc1 [Compound 226]	0	0	0	0	0	0	0	0	0	0	0	0	0	0	0	0	0	0	0	0	Barnyardgrass plant response rating (barnyardgrass [9]; [21]): 0; Plant response rating, Barnyardgrass (barnyardgrass [9]; [20]): 0; Crabgrass, Large plant response rating (large (Lg) crabgrass [10]; [21]): 0; Plant response rating, Crabgrass, Large (large (Lg) crabgrass [10]; [20]): 0; Foxtail, Giant plant response rating (giant foxtail [11]; [21]): 0; Plant response rating, Foxtail, Giant (giant foxtail [11]; [20]): 0; Morningglory plant response rating (morningglory [12]; [21]): 0; Plant response rating, Morningglory (morningglory [12]; [20]): 0; Pigweed plant response rating (pigweed [13]; [21]): 0; Plant response rating, Pigweed (pigweed [13]; [20]): 10; Velvetleaf plant response rating (velvetleaf [14]; [21]): 0; Plant response rating, Velvetleaf (velvetleaf [14]; [20]): 10; Wheat plant response rating (wheat [15]; [21]): 0; Plant response rating, Wheat (wheat [15]; [20]): 0; Corn plant response rating (corn [16]; [21]): 0; Plant response rating, Corn (corn [16]; [20]): 0
COc1cnc(Oc2ccccc2-n2cccn2)nc1 [Compound 227]	0	0	0	0	0	0	0	10	0	10	0	0	10	60	10	20	0	0	0	0	Barnyardgrass plant response rating (barnyardgrass [9]; [21]): 0; Plant response rating, Barnyardgrass (barnyardgrass [9]; [20]): 0; Crabgrass, Large plant response rating (large (Lg) crabgrass [10]; [21]): 0; Plant response rating, Crabgrass, Large (large (Lg) crabgrass [10]; [20]): 10; Foxtail, Giant plant response rating (giant foxtail [11]; [21]): 0; Plant response rating, Foxtail, Giant (giant foxtail [11]; [20]): 10; Morningglory plant response rating (morningglory [12]; [21]): 0; Plant response rating, Morningglory (morningglory [12]; [20]): 10; Pigweed plant response rating (pigweed [13]; [21]): 10; Plant response rating, Pigweed (pigweed [13]; [20]): 60; Velvetleaf plant response rating (velvetleaf [14]; [21]): 50; Plant response rating, Velvetleaf (velvetleaf [14]; [20]): 90; Wheat plant response rating (wheat [15]; [21]): 0; Plant response rating, Wheat (wheat [15]; [20]): 0; Corn plant response rating (corn [16]; [21]): 0; Plant response rating, Corn (corn [16]; [20]): 0
O=Cc1cccc(Oc2ncc(Br)cn2)c1-n1cc(Br)cn1 [Compound 230]	35	50	20	20	0	0	0	0	0	0	0	0	0	70	0	0	0	0	0	0	Barnyardgrass plant response rating (barnyardgrass [9]; [21]): 0; Plant response rating, Barnyardgrass (barnyardgrass [9]; [20]): 20; Crabgrass, Large plant response rating (large (Lg) crabgrass [10]; [21]): 0; Plant response rating, Crabgrass, Large (large (Lg) crabgrass [10]; [20]): 10; Foxtail, Giant plant response rating (giant foxtail [11]; [21]): 0; Plant response rating, Foxtail, Giant (giant foxtail [11]; [20]): 20; Morningglory plant response rating (morningglory [12]; [21]): 0; Plant response rating, Morningglory (morningglory [12]; [20]): 0; Pigweed plant response rating (pigweed [13]; [21]): 30; Plant response rating, Pigweed (pigweed [13]; [20]): 60; Velvetleaf plant response rating (velvetleaf [14]; [21]): 0; Plant response rating, Velvetleaf (velvetleaf [14]; [20]): 30; Wheat plant response rating (wheat [15]; [21]): 0; Plant response rating, Wheat (wheat [15]; [20]): 0; Corn plant response rating (corn [16]; [21]): 0; Plant response rating, Corn (corn [16]; [20]): 0
N#Cc1cnc(Oc2ccccc2-n2cc(Br)cn2)nc1 [Compound 233]	20	50	50	10	0	0	0	10	0	0	0	0	0	20	0	0	0	0	0	0	Barnyardgrass plant response rating (barnyardgrass [9]; [21]): 0; Plant response rating, Barnyardgrass (barnyardgrass [9]; [20]): 20; Crabgrass, Large plant response rating (large (Lg) crabgrass [10]; [21]): 0; Plant response rating, Crabgrass, Large (large (Lg) crabgrass [10]; [20]): 10; Foxtail, Giant plant response rating (giant foxtail [11]; [21]): 0; Plant response rating, Foxtail, Giant (giant foxtail [11]; [20]): 20; Morningglory plant response rating (morningglory [12]; [21]): 0; Plant response rating, Morningglory (morningglory [12]; [20]): 0; Pigweed plant response rating (pigweed [13]; [21]): 20; Plant response rating, Pigweed (pigweed [13]; [20]): 50; Velvetleaf plant response rating (velvetleaf [14]; [21]): 0; Plant response rating, Velvetleaf (velvetleaf [14]; [20]): 30; Wheat plant response rating (wheat [15]; [21]): 0; Plant response rating, Wheat (wheat [15]; [20]): 0; Corn plant response rating (corn [16]; [21]): 0; Plant response rating, Corn (corn [16]; [20]): 0
